Usually IC50 stands for the concentration at which inhibition is half-maximal.

SMILES strings stand for the structures.

Experiment [1] addresses T1, His-tagged human recombinant kinase full-length Akt2 (Homo sapiens, UniProt P31751).
T1 construct: His-tagged human recombinant kinase full-length Akt2; His; purchased Invitrogen PV 3975; host or cells: insect cells
Kind of experiment: Akt2 kinase assay (TR-FRET). Particulars: 10 μM ATP, 60 min at 22° C., read-out: Akt2, median IC50. Format: biochemical. The source says: Akt2 inhibitory activity of compounds of the present invention was quantified employing the Akt2 TR-FRET assay as described in the following paragraphs.
His-tagged human recombinant kinase full-length Akt2 expressed in insect cells and activated by PDK1 was purchased form Invitrogen (part number PV 3975). As substrate for the kinase reaction the biotinylated peptide biotin-Ahx-KKLNRTLSFAEPG (C-terminus in amide form) was used which can be purchased e.g. from the company Biosynthan GmbH (Berlin-Buch, Germany).
(§1) For the assay 50 nl of a 100 fold concentrated solution of the test compound in DMSO was pipetted into a black low volume 384well microtiter plate (Greiner Bio-One, Frickenhausen, Germany), 2 μl of a solution of Akt2 in assay buffer [50 mM TRIS/HCl pH 7.5, 5 mM MgCl2, 1 mM dithiothreitol, 0.02% (v/v) Triton X-100 (Sigma)] were added and the mixture was incubated for 15 min at 22° C. to allow pre-binding of the test compounds to the enzyme before the start of the kinase reaction. Then the kinase reaction was started by the addition of 3 μl of a solution of adenosine-tri-phosphate (ATP, 16.7 μM=>final conc. in the 5 μl assay volume is 10 μM) and substrate (1.67 μM=>final conc. in the 5 μl assay volume is 1 μM) in assay buffer and the resulting mixture was incubated for a reaction time of 60 min at 22° C. The concentration of Akt2 in the assay was adjusted depending of the activity of the enzyme lot and was chosen appropriate to have the assay in the linear range, typical enzyme concentrations were in the range of about 0.2 ng/μl (final conc. in the 5 μl assay volume).
The reaction was stopped by the addition of 5 μl of a solution of HTRF detection reagents (200 nM streptavidine-XL665 [Cisbio] and 1.5 nM anti-phosho-Serine antibody [Millipore, cat. #35-001] and 0.75 nM LANCE Eu-W 1024 labeled anti-mouse IgG antibody [Perkin Elmer]) in an aqueous EDTA-solution (100 mM EDTA, 0.1% (w/v) bovine serum albumin in 50 mM HEPES/NaOH pH 7.5).
The resulting mixture was incubated 1 h at 22° C. to allow the binding of the biotinylated phosphorylated peptide to the streptavidine-XL665 and the antibodies.
Subsequently the amount of phosphorylated substrate was evaluated by measurement of the resonance energy transfer from the anti-mouse-IgG-Eu-Chelate to the streptavidine-XL665. Therefore, the fluorescence emissions at 620 nm and 665 nm after excitation at 350 nm was measured in a TR-FRET reader, e.g. a Rubystar (BMG Labtechnologies, Offenburg, Germany) or a Viewlux (Perkin-Elmer). The ratio of the emissions at 665 nm and at […] was taken as the measure for the amount of phosphorylated substrate. The data were normalised (enzyme reaction without inhibitor=0% inhibition, all other assay components but no enzyme=100% inhibition).
For orientation: In TR-FRET formats the signal depends on donor and acceptor labels being close together.

Experiment [2] concerns the target T2, His-tagged human recombinant kinase full-length Akt1 (Homo sapiens, UniProt P31749).
T2 construct: His-tagged human recombinant kinase full-length Akt1; His; purchased Invitrogen PV 3599; host or cells: insect cells
The experiment is described as follows: Akt1 kinase assay (TR-FRET). Particulars: 10 μM ATP, 60 min at 22° C., read-out: Akt1, median IC50. Format: biochemical.
Text: Akt1 inhibitory activity of compounds of the present invention was quantified employing the Akt1 TR-FRET assay as described in the following paragraphs.
His-tagged human recombinant kinase full-length Akt1 expressed in insect cells was purchased form Invitrogen (part number PV 3599). As substrate for the kinase reaction the biotinylated peptide biotin-Ahx-KKLNRTLSFAEPG (C-terminus in amide form) was used which can be purchased e.g. from the company Biosynthan GmbH (Berlin-Buch, Germany).
as §1, with “Akt1” for “Akt2”, “0.05” for “0.2”
The reaction was stopped by the addition of 5 μl of a solution of HTRF detection reagents (200 nM streptavidine-XL665 [Cisbio] and 1.5 nM anti-phosho-Serine antibody [Millipore, cat. #35-001] and 0.75 nM LANCE Eu-W 1024 labeled anti-mouse IgG antibody [Perkin Elmer]) in an aqueous EDTA-solution (100 mM EDTA, 0.1% (w/v) bovine serum albumin in 50 mM HEPES/NaOH pH 7.5). The resulting mixture was incubated 1 h at 22° C. to allow the binding of the biotinylated phosphorylated peptide to the streptavidine-XL665 and the antibodies. Subsequently the amount of phosphorylated substrate was evaluated by measurement of the resonance energy transfer from the anti-mouse-IgG-Eu-Chelate to the streptavidine-XL665. Therefore, the fluorescence emissions at 620 nm and 665 nm after excitation at 350 nm was measured in a HTRF reader, e.g. a Rubystar (BMG Labtechnologies, Offenburg, Germany) or a Viewlux (Perkin-Elmer). The ratio of the emissions at 665 nm and at […] was taken as the measure for the amount of phosphorylated substrate. The data were normalised (enzyme reaction without inhibitor=0% inhibition, all other assay components but no enzyme=100% inhibition).

Experiment [3] relates to KPL-4 breast cancer cell line. Kind of experiment: Tumor cell proliferation assay (CellTiter-Glo). Format: cell-based. Particulars: KPL4, 72 h drug exposure. Here is the method:
Compounds were tested in a cell-based assay that measures the capacity of the compounds to inhibit tumour cell proliferation following a 72 h drug exposure. Cell viability is determined using CellTiter-Glow® (CTG, Promega, cat #G7571/2/3). The CellTiter-Glo® Luminescent Cell Viability Assay is a homogeneous method to determine the number of viable cells in culture. Detection is based on using the luciferase reaction to measure the amount of ATP from viable cells. The amount of ATP in cells correlates with cell viability. Within minutes after a loss of membrane integrity, cells lose the ability to synthesize ATP, and endogenous ATPases destroy any remaining ATP; thus the levels of ATP fall precipitously.
Cells were plated at 3000-5000 cells/well (depending on the cell lines) in 90 μL growth medium on MTPs (Corning; #3603, black plate, clear flat bottom). For each cell line assayed, cells were plated onto a separate plate for determination of […] at t=0 hour and t=72 hour time points. Following overnight incubation at 37° C., chemiluminescence values for the t=0 samples were determined after adding 10 μl medium and 100 μl CTG solution according to manufacture protocol. Plates for the t=72 hour time points were treated with compounds diluted into growth medium at ten times final concentration added in 10 μL to the cell culture plate. Cells were then incubated for 72 hours at 37° C. Chemiluminescence values for the t=72 hour samples were determined. […] Experiments were controlled using a reference compound as standard.
On the technique in general: ATP-based viability assays read luminescence as a measure of living cells.

T1 sequence (P31751 whole entry): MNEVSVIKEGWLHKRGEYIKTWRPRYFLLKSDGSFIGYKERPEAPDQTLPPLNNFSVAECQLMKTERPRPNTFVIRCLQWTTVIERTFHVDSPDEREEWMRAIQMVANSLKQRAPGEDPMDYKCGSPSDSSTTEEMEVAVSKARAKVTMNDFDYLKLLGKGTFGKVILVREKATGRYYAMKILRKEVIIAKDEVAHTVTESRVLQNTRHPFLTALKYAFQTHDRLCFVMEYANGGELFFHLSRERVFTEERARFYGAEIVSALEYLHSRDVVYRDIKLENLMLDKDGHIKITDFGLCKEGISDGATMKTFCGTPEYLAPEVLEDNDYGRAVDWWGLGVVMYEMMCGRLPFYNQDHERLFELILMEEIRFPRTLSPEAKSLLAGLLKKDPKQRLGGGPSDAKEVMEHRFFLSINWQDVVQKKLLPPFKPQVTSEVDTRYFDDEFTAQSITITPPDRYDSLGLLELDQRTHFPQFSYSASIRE
T2 sequence (P31749 whole entry): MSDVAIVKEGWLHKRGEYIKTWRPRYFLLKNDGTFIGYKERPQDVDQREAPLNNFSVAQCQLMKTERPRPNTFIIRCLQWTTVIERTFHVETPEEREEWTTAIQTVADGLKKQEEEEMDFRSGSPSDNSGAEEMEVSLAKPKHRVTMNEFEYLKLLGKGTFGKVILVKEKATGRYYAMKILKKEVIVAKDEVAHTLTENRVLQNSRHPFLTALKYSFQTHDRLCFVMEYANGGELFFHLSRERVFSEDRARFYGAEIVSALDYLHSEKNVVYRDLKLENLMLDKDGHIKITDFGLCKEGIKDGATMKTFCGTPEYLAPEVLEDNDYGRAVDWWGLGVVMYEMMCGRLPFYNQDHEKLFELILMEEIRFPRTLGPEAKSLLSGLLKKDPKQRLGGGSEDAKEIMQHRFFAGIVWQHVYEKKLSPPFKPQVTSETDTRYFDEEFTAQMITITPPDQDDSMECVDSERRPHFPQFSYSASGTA

For `NC1(c2ccc(-c3nc4nc(Nc5ccccc5)nn4cc3-c3ccccc3)cc2)CCC1` [Example 5-4, {5-[4-(1-Amino-cyclobutyl)-phenyl]-6-phenyl-[1,2,4]triazolo[1,5-a]pyrimidin-2-yl}-phenyl-amine], the figures for the IC50 in experiment [1], in experiment [2] and in experiment [3] were 0.197 µM, 0.283 µM and 6.19 µM, respectively.
`Cc1cn2c(NC3CC3)c(-c3ccccc3)c(-c3ccc(C4(N)CCC4)cc3)nc2n1` [Example 2-5, {7-[4-(1-Amino-cyclobutyl)-phenyl]-2-methyl-6-phenyl-imidazo[1,2-a]pyrimidin-5-yl)-cyclopropylamine]: the IC50 amounted to 0.54 µM in experiment [1] and 3.62 µM in experiment [3].
Take `Cc1nc2nc(-c3ccc(C4(N)CCC4)cc3)c(-c3ccccc3)c(NC(C)C)n2n1` [Example 5-7, {5-[4-(1-amino-cyclobutyl)-phenyl]-2-methyl-6-phenyl-[1,2,4]triazolo[1,5-a]pyrimidin-7-yl}-isopropyl-amine]: the IC50 is 0.549 µM in experiment [1] and 0.672 µM in experiment [2].
With `Cc1nc2nc(-c3ccc(C4(N)CCC4)cc3)c(-c3ccccc3)c(C)n2n1` [Example 1-3, 1-[4-(2,7-dimethyl-6-phenyl-[1,2,4]triazolo[1,5-a]pyrimidin-5-yl)-phenyl]-cyclobutylamine], the IC50 was determined as 1.02 µM in experiment [1] and 0.526 µM in experiment [2].
`Cc1nc2nc(-c3ccc(C4(N)CCCC4)cc3)c(-c3ccccc3)cn2n1` [Example 1-1, 1-[4-(2-methyl-6-phenyl-[1,2,4]triazolo[1,5-a]pyrimidin-5-yl)-phenyl]-cyclopentylamine]: the IC50 in experiment [1] was 3.26 µM; in experiment [2], 2.57 µM.
For `CNc1c(-c2ccccc2)c(-c2ccc(C3(N)CCC3)cc2)nc2nc(C)nn12` [Example 5-13, {5-[4-(1-amino-cyclobutyl)-phenyl]-2-methyl-6-phenyl-[1,2,4]triazolo[1,5-a]pyrimidin-7-yl}-methyl-amine] the same measures were 2.24 µM and 2.24 µM.
For `COCCNc1c(-c2ccccc2)c(-c2ccc(C3(N)CCC3)cc2)nc2nc(C)nn12` [Example 5-14, {5-[4-(1-amino-cyclobutyl)-phenyl]-2-methyl-6-phenyl-[1,2,4]triazolo[1,5-a]pyrimidin-7-yl}-(2-methoxy-ethyl)-amine] the same measures were 2.32 µM and 3.25 µM.
`Cc1nc2nc(-c3ccc(C4(N)CCC4)cc3)c(-c3ccccc3)c(NCC3CC3)n2n1` [Example 5-9, {5-[4-(1-amino-cyclobutyl)-phenyl]-2-methyl-6-phenyl-[1,2,4]triazolo[1,5-a]pyrimidin-7-yl}-cyclopropylmethyl-amine]: the figures for the IC50 in experiment [1] and in experiment [2] were 0.541 µM and 0.854 µM, respectively.
With `CNc1c(-c2ccccc2)c(-c2ccc(C3(N)CCC3)cc2)nc2nc(C3CC3)nn12` [Example 5-10, {5-[4-(1-amino-cyclobutyl)-phenyl]-2-cyclopropyl-6-phenyl-[1,2,4]triazolo[1,5-a]pyrimidin-7-yl}-methyl-amine], the IC50 in experiment [1] is 0.982 µM; in experiment [2], 0.93 µM.
Take `NC1(c2ccc(-c3nc4nc(C5CC5)nn4c(N[C@H]4CC[C@H](O)CC4)c3-c3ccccc3)cc2)CCC1` [Example 5-15, 4-{5-[4-(1-amino-cyclobutyl)-phenyl]-2-cyclopropyl-6-phenyl-[1,2,4]triazolo[1,5-a]pyrimidin-7-ylamino}-cyclohexanol]: the IC50 in experiment [1] was determined as 0.936 µM; in experiment [2], 11.6 µM.
For the compound `COCCCNc1c(-c2ccccc2)c(-c2ccc(C3(N)CCC3)cc2)nc2nc(C)nn12` [Example 3-4, {5-[4-(1-Amino-cyclobutyl)-phenyl]-2-methyl-6-phenyl-[1,2,4]triazolo[1,5-a]pyrimidin-7-yl}-(3-methoxy-propyl)-amine], the values for the IC50 in experiment [1] and in experiment [2] were 9.35 µM and 18.2 µM, respectively.
On to `NC1(c2ccc(-c3nc4nc(-c5ccccn5)nn4c(NC4CC4)c3-c3ccccc3)cc2)CCC1` [Example 3-1, {5-[4-(1-Aminocyclobutyl)-phenyl]-6-phenyl-2-pyridine-2-yl-[1,2,4]triazolo[1,5-a]pyrimidin-7-yl}-cyclopropylamine], for which the results for the IC50 in experiment [1] and in experiment [2] were 2.32 µM and 2.38 µM, respectively.
For the compound `COC[C@H](C)Nc1c(-c2ccccc2)c(-c2ccc(C3(N)CCC3)cc2)nc2nc(C)cn12` [Example 2-6, {7-[4-(1-Amino-cyclobutyl)-phenyl]-2-methyl-6-phenyl-imidazo[1,2-a]pyrimidin-5-yl}-((S)-2-methoxy-1-methyl-ethyl)-amine], the IC50 stood at 2.86 µM in experiment [1] and 13 µM in experiment [2].
The matching figures for `NC1(c2ccc(-c3nc4nccn4c(N4CCOCC4)c3-c3ccccc3)cc2)CCC1` [Example 2-3, 1-[4-(5-Morpholino-4-yl-6-phenyl-imidazo[1,2-a]pyrimidin-7-yl)phenyl]-cyclobutylamine]: 7.47 µM and 13.1 µM.

(Values after US20130184273A1, “BICYCLIC PYRIMIDINES” (Bayer Intellectual Property GmbH, priority 2010, published 2013).)
